Experimental data: patent US8987193B2, “Nisin derivatives and the use thereof” (University College Cork—National University of Ireland, Cork, priority 2008, dated 2015)
Entries after “also recorded” stand apart in the source; their conditions may differ. Ends that are not written are not given here.

Legend:
L. monocytogenes CBC1 = assay: Deferred antagonism assay; type: cell-based, Listeria monocytogenes; parameters: key: + = Enhanced bioactivity relative to control; − = Bioactivity equal to or less than control; NA = no activity evident; details: L. mono CBC1; XX and XXX hinge mutant producers
Description: (§1) Deferred antagonism assays were performed by replicating strains on GM17 or GM17 x-gal agar plates and allowing them to grow overnight before overlaying with either GM17/BHI/TS/MH agar (0.75% w/v agar) seeded with the appropriate indicator strain. Zone size was calculated as the diameter of the zone of clearing minus the diameter of bacterial growth (5 mm) For higher throughput screening of N20PXX, XM21VX, XXK22T and XXX banks deferred antagonism assays were performed by replicating strains using a 96 pin replicator (Boekel) or spotting 5 μl of a fresh overnight culture on GM17 agar plates and allowing them to grow overnight. […] Additional sets of indicators were employed to further assess/reassess the bioactivity of a number of strains. […] For well-diffusion assays molten agar was cooled to 48° C. and seeded with the appropriate indicator strain. The inoculated medium was rapidly transferred into sterile Petri plates in 50 ml volumes, allowed to solidify and dried. Wells (4.6 mm in diameter) were then made in the seeded plates. Purified nisin and mutant nisins were resuspended in 0.005% acetic acid, serially diluted, 50 μl volumes were dispensed into the aforementioned wells and the plates incubated at 37° C. overnight. Bioactivity was expressed as arbitrary units/ml (AU/ml) and calculated as the reciprocal of the highest dilution that gave a definite zone multiplied by the conversion factor (i.e. 20 when 50 μl was used) (Ryan et al., 1996).
(§2) As a consequence of the enhanced activities of K22T and K22S, a more in-depth investigation of this region was carried out. Saturation mutagenesis was undertaken to create a bank of nisin A hinge derivatives containing the vast majority of possible amino acid substitutions for each position. Although pPTPL was used successfully for random mutagenesis, its relatively large size of approx 10.5 kb was considered unsuitable for the complete plasmid PCR amplification approach utilized for saturation mutagenesis. A smaller (approx 6 kb) E. coli-L. lactis shuttle vector pCI372 was considered to be potentially more useful. Its suitability with respect to the in trans expression of nisA was confirmed by the ability of pDFO5 to restore the nisin positive phenotype. Saturation mutagenesis was performed on each codon using pDF05 and oligonucleotides (Table 5) that replace the specific codon with a NNK triplet, potentially encoding all 20 standard amino acids. Following complete plasmid amplification and introduction into the intermediate Top10 host, sequence analysis of a pooled bank of pDF05 derivatives confirmed randomization. Introduction of these variants into L. lactis NZ9800 allowed the expression of mutant nisin A peptides for further analysis. […] 46 residue conversions were isolated. All strains, regardless of bioactivity, were assessed with a view to comprehensively assessing the consequences of each individual hinge alteration.

L. monocytogenes CBC3 = assay: Deferred antagonism assay; type: cell-based, Listeria monocytogenes; parameters: key: + = Enhanced bioactivity relative to control; − = Bioactivity equal to or less than control; NA = no activity evident; details: L. mono CBC3; XX and XXX hinge mutant producers
Description: as §1, §2

L. monocytogenes CBC2 = assay: Deferred antagonism assay; type: cell-based, Listeria monocytogenes; parameters: key: + = Enhanced bioactivity relative to control; − = Bioactivity equal to or less than control; NA = no activity evident; details: L. mono CBC2; XX and XXX hinge mutant producers
Description: as §1, §2

S. aureus CBC4 = assay: Deferred antagonism assay; type: cell-based; parameters: key: + = Enhanced bioactivity relative to control; − = Bioactivity equal to or less than control; NA = no activity evident; details: XX and XXX hinge mutant producers
Description: as §1, §2

L. lactis CBC7 = assay: Deferred antagonism assay; type: cell-based; parameters: key: + = Enhanced bioactivity relative to control; − = Bioactivity equal to or less than control; NA = no activity evident; details: XX and XXX hinge mutant producers
Description: as §1, §2

L. lactis CBC8 = assay: Deferred antagonism assay; type: cell-based; parameters: key: + = Enhanced bioactivity relative to control; − = Bioactivity equal to or less than control; NA = no activity evident; details: XX and XXX hinge mutant producers
Description: as §1, §2

indicator strains = assay: Deferred antagonism assays, various indicator strains (summary); type: cell-based; details: for Target strain against which the hinge mutant was selected for enhanced bioactivity: XX and XXX banks, L. lactis HP*: enhanced or equal; for Target strain against which the hinge mutant was selected for enhanced bioactivity / Strain(s) against which the derivative (producing strain) displays enhanced bioactivity: relative to nisin A-producing control; for number of targets with enhanced activity: of the 8 additional targets tested; for Strain(s) against which the derivative (producing strain) displays enhanced bioactivity: value = strains listed
Description: as §1

L. plantarum CBC6 = assay: Deferred antagonism assay; type: cell-based, Lactobacillus plantarum; parameters: key: + = Enhanced bioactivity relative to control; − = Bioactivity equal to or less than control; NA = no activity evident; details: XX and XXX hinge mutant producers
Description: as §1, §2

NisinA PML
bioactivity relative to a nisin A-producing control (L. monocytogenes CBC1): −
bioactivity relative to a nisin A-producing control (L. monocytogenes CBC3): +
bioactivity relative to a nisin A-producing control (L. monocytogenes CBC2): +
bioactivity relative to a nisin A-producing control (S. aureus CBC4): +
bioactivity relative to a nisin A-producing control (L. lactis CBC7): +
bioactivity relative to a nisin A-producing control (L. lactis CBC8): −
Target strain against which the hinge mutant was selected for enhanced bioactivity (indicator strains): Staph. aureus RF122
number of targets with enhanced activity (indicator strains): 4
Strain(s) against which the derivative (producing strain) displays enhanced bioactivity (indicator strains): S. aureus RF122, L. monocytogenes CBC2 , CBC3, and CBC4 and L. lactis CBC7 and S. aureus RF122, L. mono CBC2, CBC3, CBC4, L. lactis and CBC7
bioactivity relative to a nisin A-producing control (L. plantarum CBC6): −

NisinA PAA
bioactivity relative to a nisin A-producing control (L. monocytogenes CBC1): −
bioactivity relative to a nisin A-producing control (L. monocytogenes CBC3): −
bioactivity relative to a nisin A-producing control (L. monocytogenes CBC2): −
bioactivity relative to a nisin A-producing control (S. aureus CBC4): +
bioactivity relative to a nisin A-producing control (L. lactis CBC7): −
bioactivity relative to a nisin A-producing control (L. lactis CBC8): −
Target strain against which the hinge mutant was selected for enhanced bioactivity (indicator strains): C. sporogenes UCC1
Strain(s) against which the derivative (producing strain) displays enhanced bioactivity (indicator strains): C. sporogenes UCC1 and S. aureus CBC4
bioactivity relative to a nisin A-producing control (L. plantarum CBC6): −

NisinA QLT (ITSISLCTPGCKTGALMGCQLTTATCHCSIHVSK; not fully specified (bridges); also: lantibiotic nisin-A: lanthionine rings and dehydrated residues, places not given here; UniProt P13068 24-57, looked up, variant N20Q M21L K22T) [nisin A hinge variant QLT (i.e. N20Q, M21L, K22T)]
bioactivity relative to a nisin A-producing control (L. monocytogenes CBC1): −
bioactivity relative to a nisin A-producing control (L. monocytogenes CBC3): −
bioactivity relative to a nisin A-producing control (L. monocytogenes CBC2): −
bioactivity relative to a nisin A-producing control (S. aureus CBC4): −
bioactivity relative to a nisin A-producing control (L. lactis CBC7): −
bioactivity relative to a nisin A-producing control (L. lactis CBC8): −
Target strain against which the hinge mutant was selected for enhanced bioactivity (indicator strains): Strep. agalactiae ATCC 13813
Strain(s) against which the derivative (producing strain) displays enhanced bioactivity (indicator strains): S. agalactiae ATCC13813
bioactivity relative to a nisin A-producing control (L. plantarum CBC6): −

NisinA PSL
bioactivity relative to a nisin A-producing control (L. monocytogenes CBC1): −
bioactivity relative to a nisin A-producing control (L. monocytogenes CBC3): −
bioactivity relative to a nisin A-producing control (L. monocytogenes CBC2): −
bioactivity relative to a nisin A-producing control (S. aureus CBC4): −
bioactivity relative to a nisin A-producing control (L. lactis CBC7): −
bioactivity relative to a nisin A-producing control (L. lactis CBC8): −
Target strain against which the hinge mutant was selected for enhanced bioactivity (indicator strains): C. sporogenes UCC1/Staph. aureus RF122
Strain(s) against which the derivative (producing strain) displays enhanced bioactivity (indicator strains): C. sporogenes UCC1 and S. aureus RF122
bioactivity relative to a nisin A-producing control (L. plantarum CBC6): −

NisinA PIT (ITSISLCTPGCKTGALMGCPITTATCHCSIHVSK; not fully specified (bridges); also: lantibiotic nisin-A: lanthionine rings and dehydrated residues, places not given here; UniProt P13068 24-57, looked up, variant N20P M21I K22T) [nisin A hinge variant PIT (i.e. N20P, M21I, K22T)]
Target strain against which the hinge mutant was selected for enhanced bioactivity (indicator strains): L. lactis HP*
number of targets with enhanced activity (indicator strains): 3
Strain(s) against which the derivative (producing strain) displays enhanced bioactivity (indicator strains): S. agalactiae ATCC13813 and strain B and S. aureus NCDO1499

NisinA PIV (ITSISLCTPGCKTGALMGCPIVTATCHCSIHVSK; not fully specified (bridges); also: lantibiotic nisin-A: lanthionine rings and dehydrated residues, places not given here; UniProt P13068 24-57, looked up, variant N20P M21I K22V) [nisin A hinge variant PIV (i.e. N20P, M21I, K22V)]
Target strain against which the hinge mutant was selected for enhanced bioactivity (indicator strains): L. lactis HP*
number of targets with enhanced activity (indicator strains): 3
Strain(s) against which the derivative (producing strain) displays enhanced bioactivity (indicator strains): S. agalactiae ATCC13813 and strain B and S. aureus NCDO1499

PHM: nisin A hinge variant PHM (i.e. N20P, M21H, K22M) (ITSISLCTPGCKTGALMGCPHMTATCHCSIHVSK; not fully specified (bridges); also: lantibiotic nisin-A: lanthionine rings and dehydrated residues, places not given here; UniProt P13068 24-57, looked up, variant N20P M21H K22M)
Target strain against which the hinge mutant was selected for enhanced bioactivity (indicator strains): Strep. agalactiae ATCC 13813
number of targets with enhanced activity (indicator strains): 2
Strain(s) against which the derivative (producing strain) displays enhanced bioactivity (indicator strains): Strep. agalactiae ATCC 13813 and Strain B; also recorded: Strep. agalactiae ATCC 13813, S. agalactiae Strain B

NisinA PHT (ITSISLCTPGCKTGALMGCPHTTATCHCSIHVSK; not fully specified (bridges); also: lantibiotic nisin-A: lanthionine rings and dehydrated residues, places not given here; UniProt P13068 24-57, looked up, variant N20P M21H K22T) [nisin A hinge variant PHT (i.e. N20P, M21H, K22T)]
Target strain against which the hinge mutant was selected for enhanced bioactivity (indicator strains): Strep. agalactiae ATCC 13813
number of targets with enhanced activity (indicator strains): 3
Strain(s) against which the derivative (producing strain) displays enhanced bioactivity (indicator strains): Strep. agalactiae ATCC 13813 and Strain B, and L. lactis MG1363; also recorded: Strep. agalactiae ATCC 13813, L. lactis MG1363, S. agalactiae

NisinA PGA (ITSISLCTPGCKTGALMGCPGATATCHCSIHVSK; not fully specified (bridges); also: lantibiotic nisin-A: lanthionine rings and dehydrated residues, places not given here; UniProt P13068 24-57, looked up, variant N20P M21G K22A) [nisin A hinge variant PGA (i.e. N20P, M21G, K22A)]
Target strain against which the hinge mutant was selected for enhanced bioactivity (indicator strains): L. lactis HP*
number of targets with enhanced activity (indicator strains): 3
Strain(s) against which the derivative (producing strain) displays enhanced bioactivity (indicator strains): S. agalactiae ATCC13813 and strain B and S. aureus NCDO1499

NisinA PMA
Target strain against which the hinge mutant was selected for enhanced bioactivity (indicator strains): Strep. agalactiae ATCC 13813
number of targets with enhanced activity (indicator strains): 1
Strain(s) against which the derivative (producing strain) displays enhanced bioactivity (indicator strains): Strep. agalactiae ATCC 13813 and S. aureus DPC5246

NisinA PIH (ITSISLCTPGCKTGALMGCPIHTATCHCSIHVSK; not fully specified (bridges); also: lantibiotic nisin-A: lanthionine rings and dehydrated residues, places not given here; UniProt P13068 24-57, looked up, variant N20P M21I K22H) [nisin A hinge variant PIH (i.e. N20P, M21I, K22H)]
Target strain against which the hinge mutant was selected for enhanced bioactivity (indicator strains): L. lactis HP*
number of targets with enhanced activity (indicator strains): 1
Strain(s) against which the derivative (producing strain) displays enhanced bioactivity (indicator strains): S. agalactiae Strain B

NisinA PAQ (ITSISLCTPGCKTGALMGCPAQTATCHCSIHVSK; not fully specified (bridges); also: lantibiotic nisin-A: lanthionine rings and dehydrated residues, places not given here; UniProt P13068 24-57, looked up, variant N20P M21A K22Q) [nisin A hinge variant PAQ (i.e. N20P, M21A, K22Q)]
Target strain against which the hinge mutant was selected for enhanced bioactivity (indicator strains): L. lactis HP*
number of targets with enhanced activity (indicator strains): 3
Strain(s) against which the derivative (producing strain) displays enhanced bioactivity (indicator strains): S. agalactiae ATCC13813 and strain B and S. aureus NCDO1499
